Test results: paper PMC7146381, “Modulation of Adhesion Process, E-Selectin and VEGF Production by Anthocyanins and Their Metabolites in an In Vitro Model of Atherosclerosis” (Nutrients, 2020)
Marks after values point to notes of the source that are not given here.

What was measured:
THP-1 adhesion to HUVECs = experiment: THP-1 (monocytes) adhesion to TNF-α-activated HUVECs, fluorescence of labelled THP-1; format: cell-based, Human; details: 24 h after TNF-α 100 ng mL^−1
Experimental: (§1) When the confluency reached about 80%, HUVECs were removed using trypsin ([…]) and seeded on a 0.1% gelatin pre-coated 96-well black plate at the concentration of 2 × 10^4 cells/well at 37 °C and 5% CO2. After 24 h incubation, THP-1 (2 × 10^6) cells were labelled with CellTracker^TM Green CMFDA (1 µM) in 1 mL serum-free RPMI medium (containing 1% HEPES, 1% sodium pyruvate and 0.1% gentamicin) for 30 min. Successively, cells were washed twice, re-suspended in HUVEC medium at a final concentration of 2 × 10^5 cells mL^−1 and added to HUVECs. The adhesion process was induced for 24 h with 100 ng mL^−1 of TNF-α. Then, 200 μL of new medium containing the single compounds (0.02 µM, 0.2 µM, 2 µM and 20 µM for Peo and Pet-3-glc and 0.05 µM, 0.5 µM, 5 µM and 50 µM for VA and MetGA) was added and the cells were further incubated for 24 h. Medium from each well was collected and stored at −80 °C until ELISA analysis. Cells were rinsed twice with 200 µL of Hanks balanced salt solution and the fluorescence (excitation: 485 nm, emission: 538 nm) associated with the number of labeled THP-1 cells attached to the HUVECs was measured by a spectrophotometer (mod. F200 Infinite, TECAN Milan, Italy). Each compound and concentration were tested in quintuplicate in three independent experiments.

VEGF = experiment: ELISA quantification of VEGF in cell supernatant; format: cell-based, Human; details: for levels of VEGF in cell supernatant: with TNF-α 100 ng mL^−1, mean ± SEM
Experimental: as §1
(§2) At the end of the experiment, the recovered cell culture supernatants were used to quantify the concentrations of soluble VCAM-1 (Cat# EK0537, BosterBio), E-selectin (Cat# MBS355367, MyBioSource) and VEGF (Cat# V3-200-820-VEF, Vinci-Biochem). The analysis was performed using ELISA kits according to the manufacturer’s instruction. The analyses were conducted in quadruplicate and the results derived from three independent experiments.

[1] = tested on: adhesion of monocytes to endothelial cells; design: method as in PMID 26873533; details: TNF-α 4 h, monocyte co-incubation 15 min; cited from earlier work
E-selectin = experiment: ELISA quantification of E-selectin in cell supernatant; format: cell-based, Human; details: for levels of E-selectin in cell supernatant: with TNF-α 100 ng mL^−1, mean ± SEM; for change of E-selectin levels compared to the negative control (without TNF-α): p < 0.05
Experimental: as §1, §2

[2] = Cytotoxicity, MTT assay on HUVECs; format: cell-based; details: human, with TNF-α stimulus, mean ± SEM, read-out: Percentage of cell viability, MTT assay
Experimental: (§3) The cytotoxicity of the compounds was tested by Trypan blue and (3-(4,5-dimethylthiazol-2-yl)-2, 5-diphenyltetrazolium bromide (MTT) assay on HUVECs, according to the manufacturer’s instructions. Triton X-100 was used as positive control. Two independent experiments were performed in which each compound and concentration was tested in quadruplicate.

[3] = Cytotoxicity, Trypan blue assay on HUVECs; format: cell-based, Human; details: human
Experimental: as §3

soluble VCAM-1 = experiment: ELISA quantification of soluble VCAM-1 in cell supernatant; format: cell-based, Human; details: with TNF-α 100 ng mL^−1, mean ± SEM
Experimental: as §1, §2

[4] = 0.02 µM, controls 120-121 (no TNF-α), 170-172 (TNF-α)
[5] = 0.02 µM, controls 160-164 (no TNF-α), 316-317 (TNF-α)
[6] = 0.02 µM, controls 59-64 (no TNF-α), 307-316 (TNF-α)

COc1cc(C(=O)O)ccc1O [VA, vanillic acid]
change of THP-1 adhesion to HUVECs compared to the TNF-α treatment (THP-1 adhesion to HUVECs; 50 μM, p < 0.001): −21%
change of VEGF concentrations vs TNF-α (VEGF; 0.05 μM): −12%
levels of VEGF in cell supernatant (VEGF; 0.05 µM): 149 ± 3.0 ^c
change of VEGF concentrations vs TNF-α (VEGF; 0.5 μM): −17%
levels of VEGF in cell supernatant (VEGF; 0.5 µM): 141 ± 8.3 ^c
change of VEGF concentrations vs TNF-α (VEGF; 5 μM): −13%
levels of VEGF in cell supernatant (VEGF; 5 µM): 147 ± 4.9 ^c
change of VEGF concentrations vs TNF-α (VEGF; 50 μM): −21%
levels of VEGF in cell supernatant (VEGF; 50 µM): 135 ± 5.7 ^c
concentrations with significant reduction in the adhesion of monocytes to endothelial cells [1]: 0.2 μM and 2 µM only
levels of E-selectin in cell supernatant (E-selectin; 0.05 µM): 312 ± 14.1 ^b
levels of E-selectin in cell supernatant (E-selectin; 0.5 µM): 312 ± 11.2 ^b
levels of E-selectin in cell supernatant (E-selectin; 5 µM): 305 ± 7.4 ^b
levels of E-selectin in cell supernatant (E-selectin; 50 µM): 95 ± 13.2 ^c
change of E-selectin levels with respect to the positive TNF-α control (E-selectin; 50 μM, p < 0.001): −70%
viability at 50 µM ([2]; 50 µM): 99.7 ± 0.32%
viability at 0.05 µM [3]: 100%
viability at 0.5 µM [3]: 99.7 ± 0.33%
viability at 5 µM [3]: 99.7 ± 0.66%
viability at 50 µM [3]: 99.3 ± 0.67%

OC[C@H]1O[C@@H](Oc2cc3c(O)cc(O)cc3[o+]c2-c2cc(O)c(O)c(O)c2)[C@H](O)[C@@H](O)[C@@H]1O [delphinidin-3-glucoside]
concentrations with significant reduction in the adhesion of monocytes to endothelial cells [1]: all the concentrations tested

OC[C@H]1O[C@@H](Oc2cc3c(O)cc(O)cc3[o+]c2-c2ccc(O)c(O)c2)[C@H](O)[C@@H](O)[C@@H]1O [cyanidin-3-glucoside]
concentrations with significant reduction in the adhesion of monocytes to endothelial cells [1]: 0.1 to 2 µM

COc1cc(/C=C/C(=O)O)ccc1O [ferulic, ferulic acid]
concentrations with significant reduction in the adhesion of monocytes to endothelial cells [1]: only effective at 1 μM and 2 µM

Oc1cc(O)c2cc(O[C@@H]3OC[C@H](O)[C@H](O)[C@H]3O)c(-c3ccc(O)c(O)c3)[o+]c2c1 [arabinoside]
concentrations with significant reduction in the adhesion of monocytes to endothelial cells [1]: 0.1 to 2 µM

COc1cc(-c2[o+]c3cc(O)cc(O)c3cc2O[C@@H]2O[C@H](CO)[C@@H](O)[C@H](O)[C@H]2O)cc(O)c1O [Pet-3-glc, petunidin-3-glucoside]
change of THP-1 adhesion to HUVECs compared to the TNF-α treatment (THP-1 adhesion to HUVECs; 0.02 µM, p < 0.0001): −37%
change of THP-1 adhesion to HUVECs compared to the TNF-α treatment (THP-1 adhesion to HUVECs; 0.2 µM, p < 0.0001): −33%
change of THP-1 adhesion to HUVECs compared to the TNF-α treatment (THP-1 adhesion to HUVECs; 2 µM, p < 0.0001): −33%
change of THP-1 adhesion to HUVECs compared to the TNF-α treatment (THP-1 adhesion to HUVECs; 20 μM, p < 0.0001): −45%
levels of VEGF in cell supernatant (VEGF; [4]): 129 ± 10 ^a
change of VEGF concentrations vs TNF-α (VEGF; 0.02 μM, p < 0.001): −24%
levels of VEGF in cell supernatant (VEGF; 0.2 µM): 123 ± 7.4 ^a
change of VEGF concentrations vs TNF-α (VEGF; 0.2 μM, p < 0.001): −27%
levels of VEGF in cell supernatant (VEGF; 2 µM): 123 ± 2.9 ^a
change of VEGF concentrations vs TNF-α (VEGF; 2 μM, p < 0.001): −28%
levels of VEGF in cell supernatant (VEGF; 20 µM): 117 ± 9.9 ^a
change of VEGF concentrations vs TNF-α (VEGF; 20 μM, p < 0.001): −30%
levels of E-selectin in cell supernatant (E-selectin; [5]): 115 ± 7.5 ^c
change of E-selectin production vs TNF-α control (E-selectin; 0.02 μM, p < 0.001): −64%
change of E-selectin levels compared to the negative control (without TNF-α) (E-selectin; 0.02 µM): −28%
levels of E-selectin in cell supernatant (E-selectin; 0.2 µM): 123 ± 11.8 ^a,c
change of E-selectin production vs TNF-α control (E-selectin; 0.2 μM, p < 0.001): −60%
levels of E-selectin in cell supernatant (E-selectin; 2 µM): 104 ± 6.3 ^c
change of E-selectin production vs TNF-α control (E-selectin; 2 μM, p < 0.001): −67%
change of E-selectin levels compared to the negative control (without TNF-α) (E-selectin; 2 μM): −36%
levels of E-selectin in cell supernatant (E-selectin; 20 µM): 88 ± 12.1 ^c
change of E-selectin production vs TNF-α control (E-selectin; 20 μM, p < 0.001): −72%
change of E-selectin levels compared to the negative control (without TNF-α) (E-selectin; 20 µM): −45%
viability at 20 µM [2]: 94.4 ± 0.45%
viability at 0.02 µM [3]: 110%
viability at 0.2 µM [3]: 97 ± 1%
viability at 2 µM [3]: 97.7 ± 0.33%
viability at 20 µM [3]: 100%
levels of sVCAM-1 in cell supernatant (soluble VCAM-1; [6]): 311 ± 13 ^b
levels of sVCAM-1 in cell supernatant (soluble VCAM-1; 0.2 µM): 297 ± 15 ^b
levels of sVCAM-1 in cell supernatant (soluble VCAM-1; 2 µM): 300 ± 14 ^b
levels of sVCAM-1 in cell supernatant (soluble VCAM-1; 20 µM): 83 ± 10 ^c

O=C(O)c1ccc(O)c(O)c1 [protocatechuic acid]
concentrations with significant reduction in the adhesion of monocytes to endothelial cells [1]: all concentration tested

O=C(O)CNC(=O)c1ccccc1 [hippuric acids, hippuric acid]
concentrations with significant reduction in the adhesion of monocytes to endothelial cells [1]: only effective at 1 μM and 2 µM

COc1cc(-c2[o+]c3cc(O)cc(O)c3cc2O[C@@H]2O[C@H](CO)[C@@H](O)[C@H](O)[C@H]2O)ccc1O [Peo-3-glc, peonidin-3-glucoside]
change of THP-1 adhesion to HUVECs compared to the TNF-α treatment (THP-1 adhesion to HUVECs; 0.02 µM, p < 0.0001): −37%
change of THP-1 adhesion to HUVECs compared to the TNF-α treatment (THP-1 adhesion to HUVECs; 0.2 µM, p < 0.0001): −24%
change of THP-1 adhesion to HUVECs compared to the TNF-α treatment (THP-1 adhesion to HUVECs; 2 µM, p < 0.0001): −30%
change of THP-1 adhesion to HUVECs compared to the TNF-α treatment (THP-1 adhesion to HUVECs; 20 μM, p < 0.0001): −47%
levels of VEGF in cell supernatant (VEGF; [4]): 120 ± 6.9 ^a
change of VEGF concentrations vs TNF-α (VEGF; 0.02 μM, p < 0.001): −27%
levels of VEGF in cell supernatant (VEGF; 0.2 µM): 123 ± 1.7 ^a
change of VEGF concentrations vs TNF-α (VEGF; 0.2 μM, p < 0.001): −28%
levels of VEGF in cell supernatant (VEGF; 2 µM): 123 ± 6.0 ^a
change of VEGF concentrations vs TNF-α (VEGF; 2 μM, p < 0.001): −30%
levels of VEGF in cell supernatant (VEGF; 20 µM): 119 ± 2.6 ^a
change of VEGF concentrations vs TNF-α (VEGF; 20 μM, p < 0.001): −30%
concentrations with significant reduction in the adhesion of monocytes to endothelial cells [1]: effective only at the lowest concentration
levels of E-selectin in cell supernatant (E-selectin; [5]): 143 ± 4.3 ^a
change of E-selectin production vs TNF-α control (E-selectin; 0.02 μM, p < 0.001): −55%
levels of E-selectin in cell supernatant (E-selectin; 0.2 µM): 108 ± 5.3 ^c
change of E-selectin production vs TNF-α control (E-selectin; 0.2 μM, p < 0.001): −66%
change of E-selectin levels compared to the negative control (without TNF-α) (E-selectin; 0.2 μM): −32%
levels of E-selectin in cell supernatant (E-selectin; 2 µM): 109 ± 7.2 ^c
change of E-selectin production vs TNF-α control (E-selectin; 2 μM, p < 0.001): −65%
change of E-selectin levels compared to the negative control (without TNF-α) (E-selectin; 2 μM): −31%
levels of E-selectin in cell supernatant (E-selectin; 20 µM): 76 ± 8.4 ^c
change of E-selectin production vs TNF-α control (E-selectin; 20 μM, p < 0.001): −76%
change of E-selectin levels compared to the negative control (without TNF-α) (E-selectin; 20 µM): −53%
viability at 20 µM [2]: 98.5 ± 0.12%
viability at 0.02 µM [3]: 99.7 ± 0.33%
viability at 0.2 µM [3]: 100%
viability at 2 µM [3]: 99.3 ± 0.67%
viability at 20 µM [3]: 99.3 ± 0.33%
levels of sVCAM-1 in cell supernatant (soluble VCAM-1; [6]): 107 ± 15 ^c
levels of sVCAM-1 in cell supernatant (soluble VCAM-1; 0.2 µM): 104 ± 16 ^c
levels of sVCAM-1 in cell supernatant (soluble VCAM-1; 2 µM): 186 ± 12 ^c
levels of sVCAM-1 in cell supernatant (soluble VCAM-1; 20 µM): 149 ± 24 ^c

OC[C@H]1O[C@@H](Oc2cc3c(O)cc(O)cc3[o+]c2-c2ccc(O)c(O)c2)[C@H](O)[C@@H](O)[C@H]1O [galactoside]
concentrations with significant reduction in the adhesion of monocytes to endothelial cells [1]: 0.1 to 2 µM
